Measurements as given in ChEMBL document CHEMBL1201862, “PubChem BioAssay data set” (2004).
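How tested: cells in 96-well plates exposed to compound for 48 hours at five concentrations. GI50 is the concentration that inhibits growth by half.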 The source made the active and inactive calls. No stated cut-off is given here; in the data, active = GI50 up to about 1.1 µM and inactive = higher.

Key:
Assay in all cases: growth of human tumour cells (NCI), 48 h
SF-295 = tested on: SF-295
Hs-578T = tested on: Hs-578T
MOLT-4 = tested on: MOLT-4
IGROV-1 = tested on: IGROV-1
NCI-H23 = tested on: NCI-H23
U-251 = tested on: U-251
HOP-92 = tested on: HOP-92
SF-539 = tested on: SF-539
SF-268 = tested on: SF-268
OVCAR-5 = tested on: OVCAR-5
RXF 393 = tested on: RXF 393
MDA-MB-231 = tested on: MDA-MB-231
TK-10 = tested on: TK-10
SK-OV-3 = tested on: SK-OV-3
HCT-116 = tested on: HCT-116
CAKI-1 = tested on: CAKI-1
NCI-H226 = tested on: NCI-H226
SR = tested on: SR
SK-MEL-5 = tested on: SK-MEL-5
MCF7 = tested on: MCF7

## OCCCNCc1ccccn1
SF-295
  GI50: > 100 µM (inactive)
Hs-578T
  GI50: > 100 µM (inactive)
MOLT-4
  GI50: > 100 µM (inactive)
IGROV-1
  GI50: > 100 µM (inactive)
NCI-H23
  GI50: > 100 µM (inactive)
U-251
  GI50: > 100 µM (inactive)
HOP-92
  GI50: > 100 µM (inactive)
SF-539
  GI50: > 100 µM (inactive)
SF-268
  GI50: > 100 µM (inactive)
OVCAR-5
  GI50: > 100 µM (inactive)
RXF 393
  GI50: > 100 µM (inactive)
MDA-MB-231
  GI50: > 100 µM (inactive)
TK-10
  GI50: > 100 µM (inactive)
SK-OV-3
  GI50: > 100 µM (inactive)
HCT-116
  GI50: > 100 µM (inactive)
CAKI-1
  GI50: > 100 µM (inactive)
NCI-H226
  GI50: > 100 µM (inactive)
SR
  GI50: > 100 µM (inactive)
SK-MEL-5
  GI50: > 100 µM (inactive)
MCF7
  GI50: > 100 µM (inactive)

## CCCC(CC)c1cc(O)c(O)cc1C(CC)CCC (stereo not drawn)
SF-295
  GI50: > 10 µM (inactive)
Hs-578T
  GI50: > 10 µM (inactive)
MOLT-4
  GI50: > 10 µM (inactive)
IGROV-1
  GI50: > 10 µM (inactive)
NCI-H23
  GI50: > 10 µM (inactive)
U-251
  GI50: > 10 µM (inactive)
HOP-92
  GI50: > 10 µM (inactive)
SF-539
  GI50: > 10 µM (inactive)
SF-268
  GI50: > 10 µM (inactive)
OVCAR-5
  GI50: > 10 µM (inactive)
RXF 393
  GI50: > 10 µM (inactive)
MDA-MB-231
  GI50: > 10 µM (inactive)
TK-10
  GI50: > 10 µM (inactive)
SK-OV-3
  GI50: > 10 µM (inactive)
HCT-116
  GI50: > 10 µM (inactive)
CAKI-1
  GI50: > 10 µM (inactive)
NCI-H226
  GI50: > 10 µM (inactive)
SR
  GI50: > 10 µM (inactive)
SK-MEL-5
  GI50: > 10 µM (inactive)
MCF7
  GI50: > 10 µM (inactive)

## O=S(=O)(O)c1ccc(/N=N/c2ccc(/N=N/c3c(O)ccc4cc(S(=O)(=O)O)ccc34)cc2)cc1
SF-295
  GI50: > 100 µM (inactive)
Hs-578T
  GI50: > 100 µM (inactive)
MOLT-4
  GI50: > 100 µM (inactive)
IGROV-1
  GI50: > 100 µM (inactive)
NCI-H23
  GI50: > 100 µM (inactive)
U-251
  GI50: > 100 µM (inactive)
HOP-92
  GI50: > 100 µM (inactive)
SF-539
  GI50: > 100 µM (inactive)
SF-268
  GI50: > 100 µM (inactive)
OVCAR-5
  GI50: > 100 µM (inactive)
RXF 393
  GI50: > 100 µM (inactive)
MDA-MB-231
  GI50: > 100 µM (inactive)
TK-10
  GI50: > 100 µM (inactive)
SK-OV-3
  GI50: > 100 µM (inactive)
HCT-116
  GI50: > 100 µM (inactive)
CAKI-1
  GI50: > 100 µM (inactive)
NCI-H226
  GI50: > 100 µM (inactive)
SR
  GI50: > 100 µM (inactive)
SK-MEL-5
  GI50: > 100 µM (inactive)
MCF7
  GI50: > 100 µM (inactive)

## COc1ccc(C=O)cc1OS(=O)(=O)C(F)(F)C(F)(F)C(F)(F)C(F)(F)F
SF-295
  GI50: 22.1 µM (inactive)
Hs-578T
  GI50: 22.6 µM (inactive)
MOLT-4
  GI50: 3.23 µM (inactive)
IGROV-1
  GI50: 24.9 µM (inactive)
NCI-H23
  GI50: 32.1 µM (inactive)
U-251
  GI50: 22.9 µM (inactive)
HOP-92
  GI50: 13.2 µM (inactive)
SF-539
  GI50: 18.5 µM (inactive)
SF-268
  GI50: 26.5 µM (inactive)
OVCAR-5
  GI50: 50.7 µM (inactive)
RXF 393
  GI50: 21.3 µM (inactive)
MDA-MB-231
  GI50: 23.6 µM (inactive)
TK-10
  GI50: > 49.5 µM (inactive)
SK-OV-3
  GI50: 30.4 µM (inactive)
HCT-116
  GI50: 27.2 µM (inactive)
CAKI-1
  GI50: 40.3 µM (inactive)
NCI-H226
  GI50: > 100 µM (inactive)
SR
  GI50: 6.27 µM (inactive)
SK-MEL-5
  GI50: 15.5 µM (inactive)
MCF7
  GI50: 26.1 µM (inactive)

## COC(=O)c1cc(C(=CCC[C@H]2CC[C@@]3(C)C(CCC4C3CC[C@@]3(C)C4CC[C@@H]3C(C)CCCC(C)C)C2)c2cc(Cl)c(O)c(C(=O)OC)c2)cc(Cl)c1O (stereo partly drawn)
SF-295
  GI50: > 10 µM (inactive)
Hs-578T
  GI50: > 10 µM (inactive)
MOLT-4
  GI50: > 10 µM (inactive)
IGROV-1
  GI50: > 10 µM (inactive)
NCI-H23
  GI50: > 10 µM (inactive)
U-251
  GI50: > 10 µM (inactive)
HOP-92
  GI50: > 10 µM (inactive)
SF-539
  GI50: > 10 µM (inactive)
SF-268
  GI50: > 10 µM (inactive)
OVCAR-5
  GI50: > 10 µM (inactive)
RXF 393
  GI50: > 10 µM (inactive)
MDA-MB-231
  GI50: > 10 µM (inactive)
TK-10
  GI50: > 10 µM (inactive)
SK-OV-3
  GI50: > 10 µM (inactive)
HCT-116
  GI50: > 10 µM (inactive)
CAKI-1
  GI50: > 10 µM (inactive)
NCI-H226
  GI50: > 10 µM (inactive)
SR
  GI50: > 10 µM (inactive)
SK-MEL-5
  GI50: > 10 µM (inactive)
MCF7
  GI50: > 10 µM (inactive)

## COC(=O)C12OC3CO[Si](C(C)C)(C(C)C)O[Si](C(C)C)(C(C)C)OC3C1Oc1nc(=O)ccn12 (stereo not drawn)
SF-295
  GI50: 16 µM (inactive)
Hs-578T
  GI50: < 0.01 µM (active)
MOLT-4
  GI50: 12.1 µM (inactive)
IGROV-1
  GI50: 11.6 µM (inactive)
NCI-H23
  GI50: 15.5 µM (inactive)
U-251
  GI50: 16.1 µM (inactive)
HOP-92
  GI50: 14.3 µM (inactive)
SF-539
  GI50: 16.4 µM (inactive)
SF-268
  GI50: 12 µM (inactive)
OVCAR-5
  GI50: 15.2 µM (inactive)
RXF 393
  GI50: 16.6 µM (inactive)
MDA-MB-231
  GI50: 15.5 µM (inactive)
TK-10
  GI50: 17.1 µM (inactive)
SK-OV-3
  GI50: 17.3 µM (inactive)
HCT-116
  GI50: 16.1 µM (inactive)
CAKI-1
  GI50: 17.7 µM (inactive)
NCI-H226
  GI50: 15.8 µM (inactive)
SR
  GI50: 15 µM (inactive)
SK-MEL-5
  GI50: 16.2 µM (inactive)
MCF7
  GI50: 16 µM (inactive)

## CCCCCCCc1c(Cl)nc(Cl)nc1Cl
SF-295
  GI50: 16.9 µM (inactive)
Hs-578T
  GI50: 6.28 µM (inactive)
MOLT-4
  GI50: 1.15 µM (inactive)
IGROV-1
  GI50: 2.29 µM (inactive)
NCI-H23
  GI50: 3.72 µM (inactive)
U-251
  GI50: 4.89 µM (inactive)
HOP-92
  GI50: 4.5 µM (inactive)
SF-539
  GI50: 9.82 µM (inactive)
SF-268
  GI50: 4.66 µM (inactive)
OVCAR-5
  GI50: 8.85 µM (inactive)
RXF 393
  GI50: 2.47 µM (inactive)
MDA-MB-231
  GI50: 3.52 µM (inactive)
TK-10
  GI50: 13.6 µM (inactive)
SK-OV-3
  GI50: 7.43 µM (inactive)
HCT-116
  GI50: 2.63 µM (inactive)
CAKI-1
  GI50: 2.38 µM (inactive)
NCI-H226
  GI50: 2.04 µM (inactive)
SR
  GI50: 0.604 µM (active)
SK-MEL-5
  GI50: 4.31 µM (inactive)
MCF7
  GI50: 10.4 µM (inactive)

## CN(C)c1nc2oc(-c3ccccc3)c(-c3ccccc3)c2c2nncn12
SF-295
  GI50: > 100 µM (inactive)
Hs-578T
  GI50: > 100 µM (inactive)
MOLT-4
  GI50: > 10 µM (inactive)
IGROV-1
  GI50: > 100 µM (inactive)
NCI-H23
  GI50: > 100 µM (inactive)
U-251
  GI50: > 100 µM (inactive)
HOP-92
  GI50: > 100 µM (inactive)
SF-539
  GI50: > 100 µM (inactive)
SF-268
  GI50: > 100 µM (inactive)
OVCAR-5
  GI50: > 100 µM (inactive)
RXF 393
  GI50: > 100 µM (inactive)
MDA-MB-231
  GI50: > 100 µM (inactive)
TK-10
  GI50: > 100 µM (inactive)
SK-OV-3
  GI50: > 100 µM (inactive)
HCT-116
  GI50: > 100 µM (inactive)
CAKI-1
  GI50: > 100 µM (inactive)
NCI-H226
  GI50: > 100 µM (inactive)
SR
  GI50: > 100 µM (inactive)
MCF7
  GI50: > 100 µM (inactive)

## COc1cc2c(cc1OC)C(SC)C(=O)N(Cc1cccc(OC)c1OC)CC2 (stereo not drawn)
SF-295
  GI50: 0.63 µM (active)
Hs-578T
  GI50: 2.66 µM (inactive)
MOLT-4
  GI50: 2.33 µM (inactive)
IGROV-1
  GI50: 2.77 µM (inactive)
NCI-H23
  GI50: 2.25 µM (inactive)
U-251
  GI50: 2.02 µM (inactive)
HOP-92
  GI50: 0.861 µM (active)
SF-539
  GI50: 1.22 µM (inactive)
SF-268
  GI50: 4.67 µM (inactive)
OVCAR-5
  GI50: 14.9 µM (inactive)
RXF 393
  GI50: 1.79 µM (inactive)
MDA-MB-231
  GI50: 5.48 µM (inactive)
TK-10
  GI50: 5.62 µM (inactive)
SK-OV-3
  GI50: 2.54 µM (inactive)
HCT-116
  GI50: 1.92 µM (inactive)
CAKI-1
  GI50: 13.6 µM (inactive)
NCI-H226
  GI50: 3.21 µM (inactive)
SR
  GI50: 0.912 µM (active)
SK-MEL-5
  GI50: 0.703 µM (active)
MCF7
  GI50: 0.746 µM (active)

## C/C(=C/CNc1ncnc2c1ncn2CCC#N)CO
SF-295
  GI50: > 100 µM (inactive)
Hs-578T
  GI50: > 100 µM (inactive)
MOLT-4
  GI50: > 100 µM (inactive)
IGROV-1
  GI50: > 100 µM (inactive)
NCI-H23
  GI50: > 100 µM (inactive)
HOP-92
  GI50: > 100 µM (inactive)
SF-539
  GI50: > 100 µM (inactive)
SF-268
  GI50: > 100 µM (inactive)
OVCAR-5
  GI50: > 100 µM (inactive)
RXF 393
  GI50: > 100 µM (inactive)
MDA-MB-231
  GI50: > 100 µM (inactive)
TK-10
  GI50: > 100 µM (inactive)
SK-OV-3
  GI50: > 100 µM (inactive)
HCT-116
  GI50: > 100 µM (inactive)
CAKI-1
  GI50: > 100 µM (inactive)
NCI-H226
  GI50: > 100 µM (inactive)
SR
  GI50: > 100 µM (inactive)
SK-MEL-5
  GI50: > 100 µM (inactive)
MCF7
  GI50: > 100 µM (inactive)
